# Values quoted from earlier work in patent US10281467B2, “Screening assays to identify compounds which modulate T1R associated taste modalities which eliminate false positives” (SENOMYX, INC., priority 2013, dated 2019).
# Tested on: sweet taste
# Conditions: more potent/sweet than sucrose
smiles,measurement,value
C=C(C)[C@@H]1CC=C(/C=N/O)CC1 [Perillartine],potency/sweetness relative to sucrose,approximately 370 times
